Patent US20260242419A1, “A CYCLIC PEPTIDE FOR TRAPPING INTERLEUKIN-1 BETA” (Merck Sharp & Dohme LLC, priority 2023, published 2026)
Starred links: 1 amine or outer side, 2 acyl side, 3 side chain; linkers in the order of their positions; H or OH if unused. Non-standard residues stand in square brackets, D forms with d. Residues, ends and D or L forms follow the SMILES beside them. dPro(4R-(4-pyridylmethyl)) = O=C(O)[C@H]1C[C@@H](Cc2ccncc2)CN1; Ala(piperidin-4-yl) = O=C([C@H](CC1CCN([*:3])CC1)N[*:1])[*:2]; Trp(βS-Me,4-F) = C[C@@H](c1c[nH]c2cccc(F)c12)[C@H](N)C(=O)O; Bip(4'-COOH) = N[C@@H](Cc1ccc(-c2ccc(C(=O)O)cc2)cc1)C(=O)O; dPro(4R-Bzl(4-F)) = O=C(O)[C@H]1C[C@@H](Cc2ccc(F)cc2)CN1; dPro(3S-(4-F-Bn)) = O=C(O)[C@@H]1NCC[C@@H]1Cc1ccc(F)cc1; Ala(morpholin-4-yl) = N[C@@H](CN1CCOCC1)C(=O)O; Ala(pyrimidin-5-yl) = N[C@@H](Cc1cncnc1)C(=O)O; Phe(4-COOH) = N[C@@H](Cc1ccc(C(=O)O)cc1)C(=O)O; Phe(4-tBu) = CC(C)(C)c1ccc(C[C@H](N)C(=O)O)cc1; Ala(4-Pyridazinyl) = N[C@@H](Cc1ccnnc1)C(=O)O; Ala(2-pyrazinyl) = N[C@@H](Cc1cnccn1)C(=O)O; X34 = C[N+](C)(C)CC[C@H](N[*:1])C(=O)[*:2]; Pro(cis-4-F) = O=C(O)[C@@H]1C[C@H](F)CN1; X45 = Cc1cc(C[C@H](N[*:1])C(=O)[*:2])no1; Ala(4-THP) = N[C@@H](CC1CCOCC1)C(=O)O; X38 = O=C([C@H](Cc1ncco1)N[*:1])[*:2]; X6 = O=C([C@H](Cc1ccncn1)N[*:1])[*:2]; AEF = NCCOc1ccc(C[C@H](N)C(=O)O)cc1; d(αMeD) = C[C@@](N)(CC(=O)O)C(=O)O; h4Pal = N[C@@H](CCc1ccncc1)C(=O)O; 4Pal = N[C@@H](Cc1ccncc1)C(=O)O; Dab = NCC[C@H](N)C(=O)O; Aib = CC(C)(N)C(=O)O

What follows are compounds tested against T1, IL-1β (Homo sapiens, UniProt P01584) (assay: IL-6 assay in MRC5 cells: inhibition of IL-1β induced IL-6 secretion (AlphaLISA)). Conditions: inhibition of IL-1β induced IL-6 secretion in MRC5 cells; read-out: MRC5 IC50.
T1 construct: purchased BioLegend 579404
Type: cell-based
Method in brief: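 Compound was pre-incubated 1 h at ambient temperature with recombinant human IL-1β at 2λ EC80 before adding human lung fibroblast MRC5 cells (3000/well) in EMEM with 0.025% BSA. After overnight culture at 37 °C, 5% CO2, secreted IL-6 in conditioned medium was measured by AlphaLISA; IC50 from 4-parameter logistic fits.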

T1 sequence (P01584 117-269): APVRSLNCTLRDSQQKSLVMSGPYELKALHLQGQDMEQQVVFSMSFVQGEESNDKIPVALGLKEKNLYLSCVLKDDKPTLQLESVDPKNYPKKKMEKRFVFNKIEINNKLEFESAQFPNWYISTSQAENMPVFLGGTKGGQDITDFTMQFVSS

Compound	IC50
C[C@@H](c1c[nH]c2cccc(F)c12)[C@@H]1NC(=O)[C@@H]2C[C@H](F)CN2C(=O)CNC(=O)[C@H](Cc2ccc(C(=O)O)cc2)NC(=O)[C@H](Cc2ccncc2)NC(=O)[C@H](Cc2ccc(C(C)(C)C)cc2)NC(=O)[C@H]2C[C@@H](Cc3ccncc3)CN2C(=O)CNC(=O)[C@H](CCN)NC(=O)[C@H](CCC(N)=O)NC(=O)[C@H](Cc2cncnc2)NC(=O)C(C)(C)NC(=O)[C@H](Cc2c[nH]c3ccccc23)NC(=O)[C@H](CCC(=O)O)NC(=O)C(C)(C)NC1=O [Example 311] (cyclo([Phe(4-tBu)][4Pal][Phe(4-COOH)]G[Pro(cis-4-F)][Trp(βS-Me,4-F)][Aib]EW[Aib][Ala(pyrimidin-5-yl)]Q[Dab]G[dPro(4R-(4-pyridylmethyl))]))	0.017 nM
C[C@@H](c1c[nH]c2cccc(F)c12)[C@@H]1NC(=O)[C@@H]2C[C@H](F)CN2C(=O)CNC(=O)[C@H](Cc2ccc(C(=O)O)cc2)NC(=O)[C@H](Cc2ccncc2)NC(=O)[C@H](Cc2ccc(-c3ccc(C(=O)O)cc3)cc2)NC(=O)[C@H]2[C@@H](Cc3ccc(F)cc3)CCN2C(=O)CNC(=O)[C@H](CCN)NC(=O)[C@H](CCC(N)=O)NC(=O)[C@H](Cc2ccncn2)NC(=O)C(C)(C)NC(=O)[C@H](Cc2c[nH]c3ccccc23)NC(=O)[C@H](CCC(=O)O)NC(=O)C(C)(C)NC1=O [Example 312] (cyclo([Bip(4'-COOH)][4Pal][Phe(4-COOH)]G[Pro(cis-4-F)][Trp(βS-Me,4-F)][Aib]EW[Aib][X6]Q[Dab]G[dPro(3S-(4-F-Bn))]))	0.017 nM
C[C@@H](c1c[nH]c2cccc(F)c12)[C@@H]1NC(=O)[C@@H]2C[C@H](F)CN2C(=O)CNC(=O)[C@H](Cc2ccc(C(=O)O)cc2)NC(=O)[C@H](Cc2ccncc2)NC(=O)[C@H](Cc2ccc(-c3ccc(C(=O)O)cc3)cc2)NC(=O)[C@H]2C[C@@H](Cc3ccc(F)cc3)CN2C(=O)CNC(=O)[C@H](CCN)NC(=O)[C@H](CCC(N)=O)NC(=O)[C@H](CC[N+](C)(C)C)NC(=O)C(C)(C)NC(=O)[C@H](Cc2c[nH]c3ccccc23)NC(=O)[C@H](CO)NC(=O)C(C)(C)NC1=O [Example 314] (cyclo([Bip(4'-COOH)][4Pal][Phe(4-COOH)]G[Pro(cis-4-F)][Trp(βS-Me,4-F)][Aib]SW[Aib][X34]Q[Dab]G[dPro(4R-Bzl(4-F))]))	0.02 nM
CC(=O)NCCOc1ccc(C[C@@H]2NC(=O)[C@H]3C[C@@H](Cc4ccncc4)CN3C(=O)CNC(=O)[C@H](CCN)NC(=O)[C@H](CCC(N)=O)NC(=O)[C@H](Cc3cc(C)on3)NC(=O)C(C)(C)NC(=O)[C@H](Cc3c[nH]c4ccccc34)NC(=O)[C@H](CCC(=O)O)NC(=O)C(C)(C)NC(=O)[C@H]([C@@H](C)c3c[nH]c4cccc(F)c34)NC(=O)[C@@H]3C[C@H](F)CN3C(=O)CNC(=O)[C@H](Cc3ccc(C(=O)O)cc3)NC(=O)[C@H](Cc3ccncc3)NC2=O)cc1 [Example 315] (cyclo([AEF](Ac)[4Pal][Phe(4-COOH)]G[Pro(cis-4-F)][Trp(βS-Me,4-F)][Aib]EW[Aib][X45]Q[Dab]G[dPro(4R-(4-pyridylmethyl))]))	0.018 nM
CC(=O)NCCOc1ccc(C[C@@H]2NC(=O)[C@H]3C[C@@H](Cc4ccncc4)CN3C(=O)CNC(=O)[C@H](CCN)NC(=O)[C@H](CCC(N)=O)NC(=O)[C@H](Cc3ncco3)NC(=O)C(C)(C)NC(=O)[C@H](Cc3c[nH]c4ccccc34)NC(=O)[C@H](CCC(=O)O)NC(=O)C(C)(C)NC(=O)[C@H]([C@@H](C)c3c[nH]c4cccc(F)c34)NC(=O)[C@@H]3C[C@H](F)CN3C(=O)CNC(=O)[C@H](Cc3ccc(C(=O)O)cc3)NC(=O)[C@H](Cc3ccncc3)NC2=O)cc1 [Example 316] (cyclo([AEF](Ac)[4Pal][Phe(4-COOH)]G[Pro(cis-4-F)][Trp(βS-Me,4-F)][Aib]EW[Aib][X38]Q[Dab]G[dPro(4R-(4-pyridylmethyl))]))	0.02 nM
CC(=O)NCCOc1ccc(C[C@@H]2NC(=O)[C@H]3C[C@@H](Cc4ccncc4)CN3C(=O)CNC(=O)[C@H](CCN)NC(=O)[C@H](CCC(N)=O)NC(=O)[C@H](CCc3ccncc3)NC(=O)C(C)(C)NC(=O)[C@H](Cc3c[nH]c4ccccc34)NC(=O)[C@H](CCC(=O)O)NC(=O)C(C)(C)NC(=O)[C@H]([C@@H](C)c3c[nH]c4cccc(F)c34)NC(=O)[C@@H]3C[C@H](F)CN3C(=O)CNC(=O)[C@H](Cc3ccc(C(=O)O)cc3)NC(=O)[C@H](Cc3ccncc3)NC2=O)cc1 [Example 318] (cyclo([AEF](Ac)[4Pal][Phe(4-COOH)]G[Pro(cis-4-F)][Trp(βS-Me,4-F)][Aib]EW[Aib][h4Pal]Q[Dab]G[dPro(4R-(4-pyridylmethyl))]))	0.025 nM
C[C@@H](c1c[nH]c2cccc(F)c12)[C@@H]1NC(=O)[C@@H]2C[C@H](F)CN2C(=O)CNC(=O)[C@H](Cc2ccc(C(=O)O)cc2)NC(=O)[C@H](Cc2ccncc2)NC(=O)[C@H](Cc2ccc(-c3ccc(C(=O)O)cc3)cc2)NC(=O)[C@H]2C[C@@H](Cc3ccc(F)cc3)CN2C(=O)CNC(=O)[C@H](CCN)NC(=O)[C@H](CCC(N)=O)NC(=O)[C@H](CN2CCOCC2)NC(=O)[C@@](C)(CC(=O)O)NC(=O)[C@H](Cc2c[nH]c3ccccc23)NC(=O)[C@H](CO)NC(=O)C(C)(C)NC1=O [Example 319] (cyclo([Bip(4'-COOH)][4Pal][Phe(4-COOH)]G[Pro(cis-4-F)][Trp(βS-Me,4-F)][Aib]SW[d(αMeD)][Ala(morpholin-4-yl)]Q[Dab]G[dPro(4R-Bzl(4-F))]))	0.017 nM
C[C@@H](c1c[nH]c2cccc(F)c12)[C@@H]1NC(=O)[C@@H]2C[C@H](F)CN2C(=O)CNC(=O)[C@H](Cc2ccc(C(=O)O)cc2)NC(=O)[C@H](Cc2ccncc2)NC(=O)[C@H](Cc2ccc(-c3ccc(C(=O)O)cc3)cc2)NC(=O)[C@H]2C[C@@H](Cc3ccc(F)cc3)CN2C(=O)CNC(=O)[C@H](CCN)NC(=O)[C@H](CCC(N)=O)NC(=O)[C@H](CC2CCNCC2)NC(=O)[C@@](C)(CC(=O)O)NC(=O)[C@H](Cc2c[nH]c3ccccc23)NC(=O)[C@H](CO)NC(=O)C(C)(C)NC1=O [Example 320] (cyclo([Bip(4'-COOH)][4Pal][Phe(4-COOH)]G[Pro(cis-4-F)][Trp(βS-Me,4-F)][Aib]SW[d(αMeD)][Ala(piperidin-4-yl)]Q[Dab]G[dPro(4R-Bzl(4-F))]))	0.015 nM

More lines, now with the values ahead:

IC50	Compound
0.017 nM	CC(=O)NCCOc1ccc(C[C@@H]2NC(=O)[C@H]3C[C@@H](Cc4ccncc4)CN3C(=O)CNC(=O)[C@H](CCN)NC(=O)[C@H](CCC(N)=O)NC(=O)[C@H](Cc3ccc(O)cc3)NC(=O)C(C)(C)NC(=O)[C@H](Cc3c[nH]c4ccccc34)NC(=O)[C@H](CCC(=O)O)NC(=O)C(C)(C)NC(=O)[C@H]([C@@H](C)c3c[nH]c4cccc(F)c34)NC(=O)[C@@H]3C[C@H](F)CN3C(=O)CNC(=O)[C@H](Cc3ccc(C(=O)O)cc3)NC(=O)[C@H](Cc3ccncc3)NC2=O)cc1 [Example 310] (cyclo([AEF](Ac)[4Pal][Phe(4-COOH)]G[Pro(cis-4-F)][Trp(βS-Me,4-F)][Aib]EW[Aib]YQ[Dab]G[dPro(4R-(4-pyridylmethyl))]))
0.015 nM	C[C@@H](c1c[nH]c2cccc(F)c12)[C@@H]1NC(=O)[C@@H]2C[C@H](F)CN2C(=O)CNC(=O)[C@H](Cc2ccc(C(=O)O)cc2)NC(=O)[C@H](Cc2ccncc2)NC(=O)[C@H](Cc2ccc(-c3ccc(C(=O)O)cc3)cc2)NC(=O)[C@H]2C[C@@H](Cc3ccc(F)cc3)CN2C(=O)CNC(=O)[C@H](CCN)NC(=O)[C@H](CCC(N)=O)NC(=O)[C@H](CC2CCOCC2)NC(=O)[C@@](C)(CC(=O)O)NC(=O)[C@H](Cc2c[nH]c3ccccc23)NC(=O)[C@H](CO)NC(=O)C(C)(C)NC1=O [Example 313] (cyclo([Bip(4'-COOH)][4Pal][Phe(4-COOH)]G[Pro(cis-4-F)][Trp(βS-Me,4-F)][Aib]SW[d(αMeD)][Ala(4-THP)]Q[Dab]G[dPro(4R-Bzl(4-F))]))
0.015 nM	CC(=O)NCCOc1ccc(C[C@@H]2NC(=O)[C@H]3C[C@@H](Cc4ccncc4)CN3C(=O)CNC(=O)[C@H](CCN)NC(=O)[C@H](CCC(N)=O)NC(=O)[C@H](Cc3c[nH]cn3)NC(=O)C(C)(C)NC(=O)[C@H](Cc3c[nH]c4ccccc34)NC(=O)[C@H](CCC(=O)O)NC(=O)C(C)(C)NC(=O)[C@H]([C@@H](C)c3c[nH]c4cccc(F)c34)NC(=O)[C@@H]3C[C@H](F)CN3C(=O)CNC(=O)[C@H](Cc3ccc(C(=O)O)cc3)NC(=O)[C@H](Cc3ccncc3)NC2=O)cc1 [Example 317] (cyclo([AEF](Ac)[4Pal][Phe(4-COOH)]G[Pro(cis-4-F)][Trp(βS-Me,4-F)][Aib]EW[Aib]HQ[Dab]G[dPro(4R-(4-pyridylmethyl))]))
0.015 nM	C[C@@H](c1c[nH]c2cccc(F)c12)[C@@H]1NC(=O)[C@@H]2C[C@H](F)CN2C(=O)CNC(=O)[C@H](Cc2ccc(C(=O)O)cc2)NC(=O)[C@H](Cc2ccncc2)NC(=O)[C@H](Cc2ccc(-c3ccc(C(=O)O)cc3)cc2)NC(=O)[C@H]2C[C@@H](Cc3ccc(F)cc3)CN2C(=O)CNC(=O)[C@H](CCN)NC(=O)[C@H](CCC(N)=O)NC(=O)[C@H](Cc2cnccn2)NC(=O)[C@@](C)(CC(=O)O)NC(=O)[C@H](Cc2c[nH]c3ccccc23)NC(=O)[C@H](CO)NC(=O)C(C)(C)NC1=O [Example 321] (cyclo([Bip(4'-COOH)][4Pal][Phe(4-COOH)]G[Pro(cis-4-F)][Trp(βS-Me,4-F)][Aib]SW[d(αMeD)][Ala(2-pyrazinyl)]Q[Dab]G[dPro(4R-Bzl(4-F))]))
0.013 nM	C[C@@H](c1c[nH]c2cccc(F)c12)[C@@H]1NC(=O)[C@@H]2C[C@H](F)CN2C(=O)CNC(=O)[C@H](Cc2ccc(C(=O)O)cc2)NC(=O)[C@H](Cc2ccncc2)NC(=O)[C@H](Cc2ccc(-c3ccc(C(=O)O)cc3)cc2)NC(=O)[C@H]2C[C@@H](Cc3ccc(F)cc3)CN2C(=O)CNC(=O)[C@H](CCN)NC(=O)[C@H](CCC(N)=O)NC(=O)[C@H](Cc2ccnnc2)NC(=O)[C@@](C)(CC(=O)O)NC(=O)[C@H](Cc2c[nH]c3ccccc23)NC(=O)[C@H](CO)NC(=O)C(C)(C)NC1=O [Example 322] (cyclo([Bip(4'-COOH)][4Pal][Phe(4-COOH)]G[Pro(cis-4-F)][Trp(βS-Me,4-F)][Aib]SW[d(αMeD)][Ala(4-Pyridazinyl)]Q[Dab]G[dPro(4R-Bzl(4-F))]))
